Values of other authors in patent US10016363B2, “Pre-spray emulsions and powders containing non-polar compounds” (VIRUN, INC., priority 2014, dated 2018).

Conditions: reported HLB value of surfactant

With sucrose monopalmitate as the substance, how does the H.L.B. read?
The H.L.B. was > 10.

For sucrose distearate, which H.L.B. is on record?
Its H.L.B. is 3.

For sucrose dipalmitate, which H.L.B. is on record?
Its H.L.B. is 7.4.
